The numbers were not newly measured in US20070026077A1 (priority 2003, published 2007), which cites them from elsewhere.

The conditions of series [1]: white crystalline light powder.
Series [2] deals with small-cell lung carcinoma. The following applies: patients with small-cell lung carcinoma.

`CC(=O)CC(c1ccccc1)c1c([O-])c2ccccc2oc1=O.[Na+]` (stereo not drawn) [warfarin sodium salt, sodium salt of 3-(α-acetonylbenzyl)-4-hydroxy-coumarin]: the hygroscopicity entry in series [1] is “hygroscopic”.

Take `CC(=O)CC(c1ccccc1)c1c(O)c2ccccc2oc1=O` (stereo not shown) [warfarin]: in the series with plasmatic proteins, the “bound to plasmatic proteins” value was “About 97%”. Further, in series [2], the survival time result is on record as “prolongation of survival time” and the tumor disease progression entry is recorded as “statistically significant retardation of tumor disease progression”.
